Blank lines part the entries; values can stand above or below the compound they belong to.
How the values were obtained:
isomerase = target: T1, isomerase (Bos taurus, UniProt Q28175); assay: isomerase reaction: 11-cis-retinol production by RPE microsomes from all-trans-retinol; format: biochemical, bovine; conditions: for IC50 / inhibition of isomerization (in words): RPE microsomes; for IC50: all-trans-retinol substrate, read-out: IC50, inhibition of 11-cis-retinol production; for inhibition of isomerization (in words): in vitro; for lowering of potency by saturation of the C13-14 double bond: relative to the 11-cis- and all-trans-isomers of Ret-NH2
T1 construct: Purified RPE microsomes were the source of the enzymes; from tissue; host or cells: bovine retinal pigment epithelium microsomes
T1 sequence (Q28175 2-533 limits assumed): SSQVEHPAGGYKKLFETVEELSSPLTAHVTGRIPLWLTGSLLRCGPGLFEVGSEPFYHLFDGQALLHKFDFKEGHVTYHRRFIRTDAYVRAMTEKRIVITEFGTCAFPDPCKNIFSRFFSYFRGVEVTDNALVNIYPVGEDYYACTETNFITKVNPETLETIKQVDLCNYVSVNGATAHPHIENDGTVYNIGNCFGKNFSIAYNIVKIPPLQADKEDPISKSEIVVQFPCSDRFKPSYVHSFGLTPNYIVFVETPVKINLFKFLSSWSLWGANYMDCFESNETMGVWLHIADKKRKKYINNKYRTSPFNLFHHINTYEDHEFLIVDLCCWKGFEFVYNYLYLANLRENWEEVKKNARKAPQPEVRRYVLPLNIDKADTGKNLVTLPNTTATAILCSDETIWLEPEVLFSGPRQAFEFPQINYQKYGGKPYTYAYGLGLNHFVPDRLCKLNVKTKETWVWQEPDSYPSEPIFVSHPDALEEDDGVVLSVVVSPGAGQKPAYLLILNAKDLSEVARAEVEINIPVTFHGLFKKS
Method: (§1) To test if 11-cis-retinylamine (11-cis Ret-NH2) affects isomerization and esterification, an in vitro assay was employed. In this assay both of the all-trans-retinyl esters formed in the reaction catalyzed by LRAT and 11-cis-retinol production by isomerase were measured (6). Purified RPE microsomes were the source of the enzymes, and all-trans-retinol was the substrate. […] Inhibition of isomerization by Ret-NH2 is not due to binding of CRALBP or competition with 11-cis-retinol for binding to CRALBP. […] An increased concentration of all-trans-retinol lowered the level of inhibition, as illustrated in FIG. 2B. […] Dixon's and Lineweaver-Burk plots in the standard assay conditions yielded Ki=0.1 μM for Ret-NH2 when all-trans-retinol (KM=0.3 μM) was assumed to be a substrate. […] This estimated value reflects the very potent nature of the inhibition by 11-cis-Ret-NH2.
Materials—Fresh bovine eyes were obtained from a local slaughterhouse (Schenk Packing Co., Inc., Stanwood, Wash.). Preparation of bovine RPE microsomes was performed according to previously described methods (Stecher et al., J Biol Chem 274:8577-85, 1999). All chemicals were purchased from Sigma-Aldrich (St. Louis, Mo.). 11-cis-Retinal was obtained from Dr. Rosalie Crouch (Charleston, S.C.).
Reaction conditions for isomerase and LRAT reaction—The isomerase reaction was performed essentially as described previously (Stecher et al., J Biol Chem 274:8577-85, 1999). The reaction was carried out in 10 mM BTP buffer, pH 7.5, 1% BSA, containing 1 mM ATP and 6 μM apo-CRALBP. To investigate inhibition properties of Ret-NH2 and its derivatives, RPE microsomes were preincubated for 5 min in 37° C. with the indicated compound in 10 mM BTP buffer, pH 7.5, 1% BSA, 1 mM ATP prior to addition of apo-CRALBP and all-trans-retinol. Ret-NH2 and its derivatives were delivered to the reaction mixture in 1 μl of DMF, and the same volume of DMF was added to the control reaction. Each experiment was performed three times in duplicate. The average values were used and the standard deviations were calculated.

CRALBP = CRALBP (Homo sapiens, UniProt P12271); assay: analysis of retinoids bound to CRALBP isolated from the reaction mixture; format: binding
Chain of CRALBP (P12271 whole entry, species assumed): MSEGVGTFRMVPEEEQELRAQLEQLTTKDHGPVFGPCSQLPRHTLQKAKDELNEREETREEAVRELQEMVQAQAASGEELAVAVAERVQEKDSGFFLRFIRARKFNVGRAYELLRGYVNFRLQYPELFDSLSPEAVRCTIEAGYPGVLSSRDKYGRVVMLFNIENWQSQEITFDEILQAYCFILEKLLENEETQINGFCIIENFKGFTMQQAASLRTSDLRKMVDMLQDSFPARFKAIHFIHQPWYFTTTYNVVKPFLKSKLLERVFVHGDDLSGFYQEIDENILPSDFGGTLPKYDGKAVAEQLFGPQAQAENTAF

LRAT = target: T2, LRAT (Bos taurus, UniProt Q9BGL2); assay: LRAT reaction: formation of all-trans-retinyl esters by RPE microsomes; format: biochemical, bovine; conditions: all-trans-retinol substrate
T2 construct: Purified RPE microsomes were the source of the enzymes; from tissue; host or cells: bovine retinal pigment epithelium microsomes
T2 sequence (Q9BGL2 1-230): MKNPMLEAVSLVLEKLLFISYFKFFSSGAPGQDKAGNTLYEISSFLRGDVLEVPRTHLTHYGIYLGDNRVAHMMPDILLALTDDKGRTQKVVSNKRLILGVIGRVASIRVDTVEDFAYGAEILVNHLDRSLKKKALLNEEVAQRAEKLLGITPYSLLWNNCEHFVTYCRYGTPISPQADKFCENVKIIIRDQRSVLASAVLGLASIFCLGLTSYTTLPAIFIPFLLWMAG
Method: as §1
Materials—Fresh bovine eyes were obtained from a local slaughterhouse (Schenk Packing Co., Inc., Stanwood, Wash.). Preparation of bovine RPE microsomes was performed according to previously described methods (Stecher et al., J Biol Chem 274:8577-85, 1999). […]
Reaction conditions for isomerase and LRAT reaction—The isomerase reaction was performed essentially as described previously (Stecher et al., J Biol Chem 274:8577-85, 1999). […] The average values were used and the standard deviations were calculated.

[1] = tested on: regeneration of vision chromophore (11-cis-retinal); assay: regeneration of 11-cis-retinal in mouse eyes after gavage and light bleach, HPLC retinoid analysis; format: in vivo; conditions: gavage in vegetable oil, 16 hours dark, light stimulated, 5 hours dark
Method: Mice were gavaged with all-trains-Ret-NH2, exposed to intense light for 20 min, and then allowed to recover in the dark for 5 hours. The total amount of different forms of retinoids in all experiments was unchanged. […] For this experiment mice were treated with both 9-cis-retinol and all-trans-Ret-NH2, and bleached after 24 hours, and were allowed to recover for 5 hours in the dark. The presence of 9-cis-retinal was confirmed in treated animals (see peaks 4 and 4′ in FIG. 4A bottom panel, corresponding to syn- and anti-9-cis-retinal oximes, respectively). 11-cis-Retinal was not reduced and/or esterified after treatment with Ret-NH2. […] This supports the idea that Ret-NH2 is a specific inhibitor of the isomerization reaction.
A. Chromatographic separation of nonpolar retinoids from WT mouse eyes. Mice were gavaged with all-trans-Ret-NH2 24 hours prior to bleaching for 20 min at 150 cd·m^−2 W in the Ganzfeld chamber. Regeneration of 11-cis-retinal was allowed for 24 hours in the dark, and retinoids were extracted from the eye and separated by normal phase HPLC as described in Materials and Methods. The peaks were identified based on elution time and absorption spectra correspond to the following retinoids: 1, all-trans-retinyl esters; 2,2′, syn- and anti-11-cis-retinal oximes; 3, syn-all-trans-retinal oxime; 4,4′, syn- and anti-9-cis-retinal oximes; 5, all-trans-retinol. B. Changes of 11-cis-retinal oxime levels at increasing doses of all-trans-Ret-NH2 during 5 hours or 24 hours of dark adaptation. Square indicates the level of 11-cis-retinal oximes that was present in mice gavaged with vegetable oil without retinoids just after bleaching, and arrow indicates the increase of visual chromophore during 5 hours of dark adaptation. Triangles correspond to the level of 11-cis-retinal found in the mice gavaged with 50 mg/kg of 13-cis-RA. C and D. Single flash ERG responses of increasing intensity for all-trans-Ret-NH2 treated mice and control mice. Serial responses to increasing flash stimuli were obtained for all-trans-Ret-NH2 treated and control mice for selected intensities (C) and plotted as a function of a-wave and b-wave versus varying light intensities under dark-adapted conditions (D) before bleach and at 5 hours and 24 hours after bleach. The dark-adapted mice were bleached with intense constant illumination (150 cd·m^−2) for 20 min. […] SE bars are shown.
Chromatographic separation of nonpolar retinoids from WT mouse eyes. Mice were gavaged with 100 mg/kg of all-trans-Ret-NH2 24 hours prior to bleaching. Mice were next exposed to 500 cd m^−2 for 48 min bleaching in the Ganzfeld chamber. Regeneration of 11-cis-retinal was allowed for 24 hours in the dark, and retinoids were extracted from the eye and separated by normal phase HPLC as described in Materials and Methods. The peaks identified based on elution time and absorption spectra correspond to the following retinoids: 1, all-trans-retinyl esters; 2,2′, syn- and anti-1-cis-retinal oximes; 3,3′ syn- and anti-all-trans-retinal oximes; 4, all-trans-retinol.
Mice were gavaged with the solution of inhibitor in vegetable oil (control—non-treated, RPN—retinylpalmitamide, RAN—retinylacetamide, Ret—NH2-all-trans-retinylamine), kept in dark for 16 hours, then light stimulated and kept in dark for additional 5 hours before their eyes were analyzed.
Mouse retinoid extraction and analysis—Retinoid analysis was performed under dim red light as described previously (Maeda et al., J. Neurochem 85:944-956, 2003; Van Hooser et al., J Biol Chem 277:19173-82, 2002). Mice were gavaged with retinoids as described previously (Van Hooser et al., J Biol Chem 277:19173-82, 2002).

RPE protein(s) = assay: gel filtration chromatography of DHPC-solubilized RPE microsome proteins with retinoid; format: binding, bovine; conditions: for gel filtration elution position (fractions): Superdex 200, native RPE extract, proteins elute in fractions 18-60
Method: The specificity of Ret-NH2 was further tested by biochemical assays. […] When the RPE microsomes were solubilized with DHPC, the isomerase activity decreased only slightly. Then [^3H]-Ret-NH2 was added to the RPE extract and loaded on a gel filtration column. Proteins were fractionated and eluted between fractions 18 and 60 (FIG. 3A), while the radioactivity was eluted in fractions 36-38. RPE65 was identified by immunoblotting in fractions 23-34 (FIG. 3B). The most abundant proteins in this fraction were identified by mass spectrometry and include glucose phosphate isomerase, D-glyceraldehyde-3-phosphate dehydrogenase, phosphoglycerate mutase, triose phosphate isomerase, enolase, annexin V, calbindin 2, and LRAT. Identification of less abundant proteins is in progress.
RPE microsomes were solubilized with 10 mM DHPC, incubated with 11,12-di[^3H]-all-trans-Ret-NH2 (1 μM), and loaded on a Superdex 200 column equilibrated with Tris/HCl buffer, pH 7.5, containing 4 mM DHPC. Proteins were eluted with a constant flow rate of 0.4 ml/min. The protein and radioactivity levels of 0.4 ml fractions were examined by SDS-PAGE and scintillation counting (A), and immunoblot with anti-RPE65 and anti-LRAT antibodies (B). The star indicates the fraction associated with maximum radioactivity.

Compound: CCCCCCCCCCCCCCCC(=O)NC/C=C(C)/C=C/C=C(C)/C=C/C1=C(C)CCCC1(C)C [N-Retinylpalmitamide]
inhibition of isomerization (in words) (isomerase): did not inhibit isomerization
inhibition of isomerization (in words) (isomerase; listed as N-palmitoylretinamide): non-inhibitory
inhibition of regeneration of vision chromophore in mice by retinylamides [1]: potent inhibitors of regeneration in mice
inhibition of regeneration of vision chromophore in mice by retinylamides ([1]; listed as RPN): same as free retinylamine

Compound: CC1=C(/C=C/C(C)=C/C=C/C(C)=C/CNO)C(C)(C)CCC1 [N-hydroxyretinylamine]
inhibition of isomerization (in words) (isomerase): higher IC50

Compound: CC(=O)NC/C=C(C)/C=C/C=C(C)/C=C/C1=C(C)CCCC1(C)C [N-retinylacetamide]
inhibition of isomerization (in words) (isomerase): weakly inhibit the isomerization reaction
inhibition of regeneration of vision chromophore in mice by retinylamides [1]: potent inhibitors of regeneration in mice
inhibition of regeneration of vision chromophore in mice by retinylamides ([1]; listed as RAN): same as free retinylamine
gel filtration elution position (fractions) (RPE protein(s)): eluted either in the void volume or with low molecular weight compounds

Compound: CC(C=CC1=C(C)CCCC1(C)C)=CC=CC(C)CCN (centres unmarked) [VIII]
lowering of potency by saturation of the C13-14 double bond (isomerase): about 10 fold

Compound: CC1=C(/C=C/C(C)=C/C=CC(C)CCN)C(C)(C)CCC1 (centres unmarked) [VII]
lowering of potency by saturation of the C13-14 double bond (isomerase): about 10 fold

Compound: [3H]C(C=C(C)C=CC1=C(C)CCCC1(C)C)=C([3H])C(C)=CCN [[^3H]-Ret-NH2, 11,12-di[^3H]-all-trans-Ret-NH2]
gel filtration elution position (fractions), heat-denaturated proteins (RPE protein(s); control with heat-denaturated proteins): 48-60

Compound: CC1=C(/C=C/C(C)=C/C=C/C(C)CCO)C(C)(C)CCC1 (stereo not drawn) [all-trans-13,14-dihydroretinol, reference compound]
inhibition of isomerization (in words) (isomerase): neither all-trans-thioretinol nor all-trans-13,14-dihydroretinol influenced the isomerization

Compound: CC1=C(/C=C/C(C)=C/C=C/C(C)=C/CS)C(C)(C)CCC1 [all-trans-thioretinol, reference compound]
inhibition of isomerization (in words) (isomerase): neither all-trans-thioretinol nor all-trans-13,14-dihydroretinol influenced the isomerization

The next lines start with results.

IC50 (isomerase): 0.64 µM
Compound: CC(C=CC1=C(C)CCCC1(C)C)=CC=CC(C)=CCN (single isomer, unassigned) [9-cis-Ret-NH2, 9-cis-retinylamine]

binding to CRALBP (CRALBP): did not reveal any significant levels
IC50 (isomerase): 0.07 µM
inhibition of isomerization (in words) (isomerase): most potent inhibitor
formation of all-trans-retinyl esters (LRAT activity) (LRAT): not affected
Compound: CC(C=CC1=C(C)CCCC1(C)C)=CC=CC(C)=CCN (single isomer, unassigned) [11-cis-Ret-NH2, 11-cis-retinylamine]

IC50 (isomerase): 0.73 µM
Compound: CC(C=CC1=C(C)CCCC1(C)C)=CC=CC(C)=CCN (single isomer, unassigned) [13-cis-Ret-NH2, 13-cis-retinylamine]

Km (isomerase; all-trans-retinol assumed to be a substrate): 0.3 µM
Compound: CC1=C(/C=C/C(C)=C/C=C/C(C)=C/CO)C(C)(C)CCC1 [all-trans-retinol, reference compound]
inhibition of isomerization (in words) (isomerase): weakly inhibit the isomerization reaction
gel filtration elution position (fractions) (RPE protein(s)): eluted either in the void volume or with low molecular weight compounds
